# Measurements: patent US9394297B2, “Amides as pim inhibitors” (AMGEN INC., priority 2012, dated 2016)
# System: KMS-12-BM cell lines
# Assay: KMS12 #2 flow cytometry assay (phospho-BAD Ser112)
# Format: cell-based
# Conditions: Homo sapiens, 110 min; KMS-12-BM cells, pBAD Ser112 by flow cytometry, 110 min with compound; read-out: KMS-12-Flow IC50 IP
row,SMILES,IC50 [nM]
1,"Cc1nc2cccc(-c3cc4c([nH]3)CCNC4=O)c2nc1-c1c(F)cccc1Cl [Example 414, 2-(3-(2-chloro-6-fluorophenyl)-2-methyl-5-quinoxalinyl)-1,5,6,7-tetrahydro-4H-pyrrolo[3,2-c]pyridin-4-one]",5860
2,"Cc1nc2cccc(-c3cc4c([nH]3)C(CCN)NC4=O)c2nc1NC(C)(C)C (stereo not drawn) [Example 463, 6-(2-aminoethyl)-2-(3-(tert-butylamino)-2-methyl-5-quinoxalinyl)-5,6-dihydropyrrolo[3,4-b]pyrrol-4(1H)-one]",9
3,"CC(C)n1c(NC(C)(C)C)nc2c(-c3cc4c([nH]3)[C@@H](C)NC4=O)cccc2c1=O [Example 406, 2-(tert-butylamino)-3-(1-methylethyl)-8-((6R)-6-methyl-4-oxo-1,4,5,6-tetrahydropyrrolo[3,4-b]pyrrol-2-yl)-4(3H)-quinazolinone]",30
4,"Cc1nc2cccc(-c3cc4c([nH]3)[C@H](C)NC4=O)c2nc1NC(C)(C)C [Example 327, (6S)-2-(3-(tert-butylamino)-2-methyl-5-quinoxalinyl)-6-methyl-5,6-dihydropyrrolo[3,4-b]pyrrol-4(1H)-one]",98.6
5,"Cc1nc2cccc(-c3cc4c([nH]3)C(CO)NC4=O)c2nc1NC(C)(C)C (racemic) [Example 469, (R)-2-(3-(tert-butylamino)-2-methylquinoxalin-5-yl)-6-(hydroxymethyl)-5,6-dihydropyrrolo[3,4-b]pyrrol-4(1H)-one and (S)-2-(3-(tert-butylamino)-2-methylquinoxalin-5-yl)-6-(hydroxymethyl)-5,6-dihydropyrrolo[3,4-b]pyrrol-4(1H)-one]",119
6,"C[C@H]1NC(=O)c2cc(-c3cccc4c(=O)n(C5CC5)c(NC(C)(C)C)nc34)[nH]c21 [Example 475, 2-(tert-butylamino)-3-cyclopropyl-8-((6R)-6-methyl-4-oxo-1,4,5,6-tetrahydropyrrolo[3,4-b]pyrrol-2-yl)-4(3H)-quinazolinone]",28
7,"Cc1nc2cccc(-c3cc4c([nH]3)[C@H](C)NC4=O)c2nc1NCC(F)F [Example 383, (S)-2-(3-((2,2-difluoroethyl)amino)-2-methylquinoxalin-5-yl)-6-methyl-5,6-dihydropyrrolo[3,4-b]pyrrol-4(1H)-one]",445
8,"Cc1nc2cccc(-c3cc4c([nH]3)CCNC4=O)c2nc1NC(C)(C)CCS(C)(=O)=O [Example 338, 2-(3-((1,1-dimethyl-3-(methylsulfonyl)propyl)amino)-2-methyl-5-quinoxalinyl)-1,5,6,7-tetrahydro-4H-pyrrolo[3,2-c]pyridin-4-one]",14300
9,"Cc1nc2cccc(-c3cc4c([nH]3)CCN/C4=N\O)c2nc1NC(C)(C)C [Example 300, (E/Z)-2-(3-(tert-butylamino)-2-methylquinoxalin-5-yl)-6,7-dihydro-1H-pyrrolo[3,2-c]pyridin-4(5H)-one oxime]",> 10000
10,"Cc1nc2cccc(-c3cc4c(n3C)C(CO)NC4=O)c2nc1NC(C)(C)C (racemic) [Example 470, (R)-2-(3-(tert-butylamino)-2-methylquinoxalin-5-yl)-6-(hydroxymethyl)-1-methyl-5,6-dihydropyrrolo[3,4-b]pyrrol-4(1H)-one and (S)-2-(3-(tert-butylamino)-2-methylquinoxalin-5-yl)-6-(hydroxymethyl)-1-methyl-5,6-dihydropyrrolo[3,4-b]pyrrol-4(1H)-one]",1280
11,Cc1nc2cccc(-c3cc4c([nH]3)CCNC4=O)c2nc1N[C@H]1C[C@@H](NCC(F)(F)F)C1 [Example 444],471
12,"Cc1nc2ccc(F)c(-c3cc4c([nH]3)[C@@H](C)NC4=O)c2nc1NC(C)(C)C [Example 297, (6R)-2-(3-(tert-butylamino)-6-fluoro-2-methyl-5-quinoxalinyl)-6-methyl-5,6-dihydropyrrolo[3,4-b]pyrrol-4(1H)-one]",28.4
13,"Cc1nc2cccc(-c3cc4c([nH]3)[C@@H](C)NC4=O)c2nc1NCC(F)F [Example 382, (R)-2-(3-((2,2-difluoroethyl)amino)-2-methylquinoxalin-5-yl)-6-methyl-5,6-dihydropyrrolo[3,4-b]pyrrol-4(1H)-one]",82.5
14,"Cc1nc2cccc(-c3[nH]c4c(c3Cl)C(=O)NCC4)c2nc1NC(C)(C)C [Example 348, 2-(3-(tert-butylamino)-2-methyl-5-quinoxalinyl)-3-chloro-1,5,6,7-tetrahydro-4H-pyrrolo[3,2-c]pyridin-4-one]",190
15,"Cc1nc2cccc(-c3cc4c([nH]3)CCNC4=O)c2nc1-c1cnccc1Cl [Example 412, 2-(3-(4-chloro-3-pyridinyl)-2-methyl-5-quinoxalinyl)-1,5,6,7-tetrahydro-4H-pyrrolo[3,2-c]pyridin-4-one]",21800

# Now from value to molecule:
row,IC50 [nM],SMILES
1,429,"Cn1c(NC(C)(C)C)nc2c(-c3cc4n(c3)CCNC4=O)cccc2c1=O [Example 449, 2-(tert-butylamino)-3-methyl-8-(1-oxo-1,2,3,4-tetrahydropyrrolo[1,2-a]pyrazin-7-yl)-4(3H)-quinazolinone]"
2,21700,"Cc1nc2cccc(-c3cc4c([nH]3)CCNC4=O)c2nc1-c1cccnc1Cl [Example 410, 2-(3-(2-chloro-3-pyridinyl)-2-methyl-5-quinoxalinyl)-1,5,6,7-tetrahydro-4H-pyrrolo[3,2-c]pyridin-4-one]"
3,29.4,"Cn1c(NC(C)(C)C)nc2c(-c3cc4c([nH]3)C3(CC3)NC4=O)cccc2c1=O [Example 456, 2′-(2-(tert-butylamino)-3-methyl-4-oxo-3,4-dihydro-8-quinazolinyl)-1′H-spiro[cyclopropane-1,6′-pyrrolo[3,4-b]pyrrol]-4′(5′H)-one]"
4,28,"C[C@H]1NC(=O)c2cc(-c3c(F)ccc4c(=O)n(C)c(NC(C)(C)C)nc34)[nH]c21 [Example 405, 2-(tert-butylamino)-7-fluoro-3-methyl-8-((6R)-6-methyl-4-oxo-1,4,5,6-tetrahydropyrrolo[3,4-b]pyrrol-2-yl)-4(3H)-quinazolinone]"
5,> 40000,"Cc1nc2cccc(-c3cc4c([nH]3)CCNC4=O)c2nc1-c1ccc(N)cc1Cl [Example 413, 2-(3-(4-amino-2-chlorophenyl)-2-methyl-5-quinoxalinyl)-1,5,6,7-tetrahydro-4H-pyrrolo[3,2-c]pyridin-4-one]"
6,57.1,"Cc1nc2ccc(F)c(-c3cc4c([nH]3)[C@H](C)NC4=O)c2nc1NC(C)(C)C [Example 298, (6S)-2-(3-(tert-butylamino)-6-fluoro-2-methyl-5-quinoxalinyl)-6-methyl-5,6-dihydropyrrolo[3,4-b]pyrrol-4(1H)-one]"
7,595,"CC(C)(C)Nc1ccc2cccc(-c3cc4c([nH]3)CCNC4=O)c2n1 [Example 340, 2-(2-(tert-butylamino)-8-quinolinyl)-1,5,6,7-tetrahydro-4H-pyrrolo[3,2-c]pyridin-4-one]"
8,> 40000,"Cc1nc2cccc(-c3cc4c([nH]3)[C@@H](C)NC4=S)c2nc1NC(C)(C)C [Example 332, (6R)-2-(3-(tert-butylamino)-2-methyl-5-quinoxalinyl)-6-methyl-5,6-dihydropyrrolo[3,4-b]pyrrole-4(1H)-thione]"
9,48.3,"Cn1c(NC(C)(C)C)nc2c(-c3cc4c([nH]3)CNC4=O)cccc2c1=O [Example 419, 2-(tert-butylamino)-3-methyl-8-(4-oxo-1,4,5,6-tetrahydropyrrolo[3,4-b]pyrrol-2-yl)-4(3H)-quinazolinone]"

# Same assay, conditions: Homo sapiens, KMS-12-BM, 110 min, read-out: KMS-12-Flow IC50 IP
row,SMILES,IC50 [nM]
1,"CCn1c(NC(C)(C)C)nc2c(-c3cc4c([nH]3)[C@@H](C)NC4=O)cccc2c1=O [Example 481, (R)-2-(tert-butylamino)-3-ethyl-8-(6-methyl-4-oxo-1,4,5,6-tetrahydropyrrolo[3,4-b]pyrrol-2-yl)quinazolin-4(3H)-one]",20

# Same assay, conditions: KMS-12-BM cells, pBAD Ser112 by flow cytometry, 110 min with compound; read-out: KMS-12-Flow IC50 IP
row,IC50 [nM],SMILES
1,> 40000,"Cc1nc2cccc(-c3cc4c([nH]3)CCNC4=O)c2nc1N[C@H]1C[C@@H](N2CCOC2=O)C1 [Example 443, 3-((1s,3s)-3-((3-methyl-8-(4-oxo-4,5,6,7-tetrahydro-1H-pyrrolo[3,2-c]pyridin-2-yl)quinoxalin-2-yl)amino)cyclobutyl)oxazolidin-2-one]"

# Biological target: Pim-2 (Homo sapiens (Human), UniProt Q9P1W9)
# Assay: Pim-Mn enzyme assay (HTRF, 384-well), Pim-2
# Format: biochemical
# Conditions: Pim-2 enzyme 0.5 pM, ATP 1.5 μM, BAD (S112) 0.5 μM, HTRF, 22-point curve; read-out: Pim-2-Mn IC50 IP
# Chain of Pim-2 (Q9P1W9 whole entry): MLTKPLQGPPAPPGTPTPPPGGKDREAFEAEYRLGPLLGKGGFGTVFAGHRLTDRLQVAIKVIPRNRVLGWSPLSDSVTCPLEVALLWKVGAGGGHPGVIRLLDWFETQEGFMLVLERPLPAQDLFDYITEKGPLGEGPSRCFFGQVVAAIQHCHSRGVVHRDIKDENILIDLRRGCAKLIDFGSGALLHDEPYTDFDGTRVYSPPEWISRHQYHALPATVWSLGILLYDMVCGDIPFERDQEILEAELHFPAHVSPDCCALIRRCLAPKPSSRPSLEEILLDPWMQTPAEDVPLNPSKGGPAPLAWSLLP
row,IC50 [nM],SMILES
1,2.4,"Cc1nc2cccc(-c3cc4c([nH]3)CCNC4=O)c2nc1NC1CCNCC1 [Example 53, 2-(2-methyl-3-(4-piperidinylamino)-5-quinoxalinyl)-1,5,6,7-tetrahydro-4H-pyrrolo[3,2-c]pyridin-4-one]"
2,39.5,"Cc1nc2cccc(-c3cc4c([nH]3)CCNC4=O)c2nc1NC(C)(C)CS(C)(=O)=O [Example 274, 2-(3-((1,1-dimethyl-2-(methylsulfonyl)ethyl)amino)-2-methyl-5-quinoxalinyl)-1,5,6,7-tetrahydro-4H-pyrrolo[3,2-c]pyridin-4-one]"
3,2.9,"Cc1nc2cccc(-c3cc4c([nH]3)CCNC4=O)c2nc1N[C@H]1CC[C@H]1N (racemic) [Example 54, rac-2-(3-((cis-2-aminocyclobutyl)amino)-2-methyl-5-quinoxalinyl)-1,5,6,7-tetrahydro-4H-pyrrolo[3,2-c]pyridin-4-one]"
4,2.24,"Cc1nc2cccc(-c3cc4c([nH]3)CCNC4=O)c2nc1NC(C)(C)C(F)(F)F [Example 254, 2-(2-methyl-3-((1,1,1-trifluoro-2-methylpropan-2-yl)amino)quinoxalin-5-yl)-6,7-dihydro-1H-pyrrolo[3,2-c]pyridin-4(5H)-one]"
5,0.5,"Cc1nc2cccc(-c3cc4c([nH]3)C(C)CNC4=O)c2nc1NC1CC1 (single isomer, unassigned) [Example 160, 2-(3-(cyclopropylamino)-2-methylquinoxalin-5-yl)-7-methyl-6,7-dihydro-1H-pyrrolo[3,2-c]pyridin-4(5H)-one]"

# Biological target: Pim-1 (Homo sapiens (Human), UniProt P11309)
# Assay: Pim-Mn enzyme assay (HTRF, 384-well), Pim-1
# Format: biochemical
# Conditions: Pim-1 enzyme 5 pM, ATP 1.5 μM, BAD (S112) 0.5 μM, HTRF, 22-point curve; read-out: Pim-1-Mn IC50 IP
# Chain of Pim-1 (P11309 whole entry): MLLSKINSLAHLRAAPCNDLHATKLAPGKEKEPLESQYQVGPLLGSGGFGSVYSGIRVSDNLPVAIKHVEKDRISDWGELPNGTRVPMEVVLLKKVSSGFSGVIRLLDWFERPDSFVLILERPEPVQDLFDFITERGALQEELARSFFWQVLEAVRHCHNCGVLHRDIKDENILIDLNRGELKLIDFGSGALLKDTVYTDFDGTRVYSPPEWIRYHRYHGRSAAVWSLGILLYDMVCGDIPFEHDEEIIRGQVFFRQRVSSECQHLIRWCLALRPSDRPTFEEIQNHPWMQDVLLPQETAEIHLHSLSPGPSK
row,IC50 [nM],SMILES
1,0.6,"Cc1nc2cccc(-c3cc4c([nH]3)CCNC4=O)c2nc1NC1CCNCC1 [Example 53, 2-(2-methyl-3-(4-piperidinylamino)-5-quinoxalinyl)-1,5,6,7-tetrahydro-4H-pyrrolo[3,2-c]pyridin-4-one]"
2,44.4,"Cc1nc2cccc(-c3cc4c([nH]3)CCNC4=O)c2nc1NC(C)(C)CS(C)(=O)=O [Example 274, 2-(3-((1,1-dimethyl-2-(methylsulfonyl)ethyl)amino)-2-methyl-5-quinoxalinyl)-1,5,6,7-tetrahydro-4H-pyrrolo[3,2-c]pyridin-4-one]"
3,1.3,"Cc1nc2cccc(-c3cc4c([nH]3)CCNC4=O)c2nc1N[C@H]1CC[C@H]1N (racemic) [Example 54, rac-2-(3-((cis-2-aminocyclobutyl)amino)-2-methyl-5-quinoxalinyl)-1,5,6,7-tetrahydro-4H-pyrrolo[3,2-c]pyridin-4-one]"
4,2.67,"Cc1nc2cccc(-c3cc4c([nH]3)CCNC4=O)c2nc1NC(C)(C)C(F)(F)F [Example 254, 2-(2-methyl-3-((1,1,1-trifluoro-2-methylpropan-2-yl)amino)quinoxalin-5-yl)-6,7-dihydro-1H-pyrrolo[3,2-c]pyridin-4(5H)-one]"
5,1,"Cc1nc2cccc(-c3cc4c([nH]3)C(C)CNC4=O)c2nc1NC1CC1 (single isomer, unassigned) [Example 160, 2-(3-(cyclopropylamino)-2-methylquinoxalin-5-yl)-7-methyl-6,7-dihydro-1H-pyrrolo[3,2-c]pyridin-4(5H)-one]"
